# Results published in ChEMBL document CHEMBL1201862, “PubChem BioAssay data set” (2004).
# The source made the active and inactive calls.
# Experiments:
# [1] = viability of PTEN-deleted HCT116 cells – cell-based, HCT116 PTEN knockout, dose response (AID 1047); assay type: functional;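 further: HCT116 colon tumor cells with PTEN knocked out; cells exposed to compound for 60 hours before readout; potency for loss of cell viability measured by luminescence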
# [2] = molecular target: Luciferin 4-monooxygenase (Photinus pyralis, UniProt P08659); experiment: inhibition of purified Photinus pyralis luciferase – biochemical, luminescence, dose response (AID 1891)
# [3] = Luminescence Cell-Based Dose Confirmation HTS to Identify Inhibitors of Platelet Dense Granule Release. [Related pubchem assays: 1663 (Primary HTS), 1678 (Summary of Project)]; assay type: functional
# [4] = molecular target: T1, Corticotropin-releasing factor receptor 2/Corticotropin-releasing factor-binding protein (Homo sapiens, UniProt P24387+Q13324); experiment: Dose Response confirmation of uHTS hits for small molecule antagonists of the CRF-binding protein and CRF-R2 receptor complex.; assay type: functional; conditions: read-out: IC50_Mean
# T1 sequence (Q13324 whole entry): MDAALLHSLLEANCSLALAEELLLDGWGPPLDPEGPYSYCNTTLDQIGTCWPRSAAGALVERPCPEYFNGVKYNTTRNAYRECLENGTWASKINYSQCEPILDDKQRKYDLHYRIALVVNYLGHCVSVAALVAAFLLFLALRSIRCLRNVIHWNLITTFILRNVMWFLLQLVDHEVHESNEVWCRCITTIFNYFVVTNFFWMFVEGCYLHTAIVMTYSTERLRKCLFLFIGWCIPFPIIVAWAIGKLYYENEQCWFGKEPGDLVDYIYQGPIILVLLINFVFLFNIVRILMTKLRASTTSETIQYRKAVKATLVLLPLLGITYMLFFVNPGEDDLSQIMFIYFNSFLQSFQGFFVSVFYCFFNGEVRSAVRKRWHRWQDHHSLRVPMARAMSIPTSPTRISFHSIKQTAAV
# T1 sequence (P24387 whole entry): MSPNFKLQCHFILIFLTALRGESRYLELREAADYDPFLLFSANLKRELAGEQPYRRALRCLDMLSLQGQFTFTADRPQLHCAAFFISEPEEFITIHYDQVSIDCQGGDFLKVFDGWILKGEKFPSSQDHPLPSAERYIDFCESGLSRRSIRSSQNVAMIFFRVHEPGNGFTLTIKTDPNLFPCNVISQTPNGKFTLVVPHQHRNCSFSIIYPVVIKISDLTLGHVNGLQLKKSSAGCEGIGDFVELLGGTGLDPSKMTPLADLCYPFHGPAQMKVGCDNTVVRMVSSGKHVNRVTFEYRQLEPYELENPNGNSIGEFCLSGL
# [5] = molecular target: T1, Corticotropin-releasing factor receptor 2/Corticotropin-releasing factor-binding protein; experiment: activators of CRF receptor 2 with binding protein – uHTS hits, confirmation (AID 602473); assay type: functional; conditions: read-out: EC50_Mean
# [6] = molecular target: Induced myeloid leukemia cell differentiation protein Mcl-1 (Homo sapiens, UniProt Q07820); assay type: functional
# Large T antigen = Large T antigen (Simian virus 40, UniProt P03070); assay type: functional, Betapolyomavirus macacae;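 further: Confirmatory-stage PubChem screen for compounds that inhibit SV40 T antigen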
# [7] = molecular target: T2, Rac GTPase-activating protein 1 (Homo sapiens, UniProt Q9H0H5); experiment: blockers of MgcRacGAP-driven Rac1 GTP hydrolysis – biochemical, ADP Hunter fluorescence, primary and confirmatory, confirmation (AID 624330); assay type: functional
# T2 sequence (Q9H0H5 whole entry): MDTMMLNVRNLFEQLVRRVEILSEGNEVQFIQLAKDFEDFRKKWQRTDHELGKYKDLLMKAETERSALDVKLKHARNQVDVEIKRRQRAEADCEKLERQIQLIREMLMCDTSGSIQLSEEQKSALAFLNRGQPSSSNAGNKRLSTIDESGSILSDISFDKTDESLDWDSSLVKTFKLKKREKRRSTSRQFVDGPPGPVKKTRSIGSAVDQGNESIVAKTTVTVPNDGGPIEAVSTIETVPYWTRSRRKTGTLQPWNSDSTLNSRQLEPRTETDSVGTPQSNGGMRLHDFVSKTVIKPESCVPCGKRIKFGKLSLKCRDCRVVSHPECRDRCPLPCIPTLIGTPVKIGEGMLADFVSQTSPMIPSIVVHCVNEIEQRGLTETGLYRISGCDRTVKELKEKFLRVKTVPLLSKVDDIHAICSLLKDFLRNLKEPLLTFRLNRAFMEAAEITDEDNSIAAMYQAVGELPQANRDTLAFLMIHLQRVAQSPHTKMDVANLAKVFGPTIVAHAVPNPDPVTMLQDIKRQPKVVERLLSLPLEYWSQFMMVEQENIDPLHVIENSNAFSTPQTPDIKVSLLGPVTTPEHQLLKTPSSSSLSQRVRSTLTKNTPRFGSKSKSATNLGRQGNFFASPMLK
# [8] = P. falciparum Dd2 growth inhibitors, dose response, SYBR Green, cherry-picked samples (AID 1159567); assay type: functional, cell-based
# BJ [9] = experiment: BJ-TERT fibroblast viability loss – cell-based, RAS-independent, luminescence, dose response (AID 1933); assay type: functional, Homo sapiens; conditions: Homo sapiens, BJ
# BJ [10] = experiment: cells; assay type: functional, cell-based, Homo sapiens; conditions: Homo sapiens, BJ
# BJ [11] = experiment: BJ-TERT-LT-ST fibroblast viability loss – cell-based, RAS-independent, luminescence, dose response (AID 1935); assay type: functional, Homo sapiens; conditions: Homo sapiens, BJ;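 further: BJ fibroblasts immortalized with TERT plus LT and ST oncogenes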
# [12] = DRD fibroblast viability loss – cell-based, non-viral oncogenic, luminescence, dose response (AID 1934); assay type: functional; conditions: Homo sapiens
# Chain of Induced myeloid leukemia cell differentiation protein Mcl-1 (Q07820 whole entry): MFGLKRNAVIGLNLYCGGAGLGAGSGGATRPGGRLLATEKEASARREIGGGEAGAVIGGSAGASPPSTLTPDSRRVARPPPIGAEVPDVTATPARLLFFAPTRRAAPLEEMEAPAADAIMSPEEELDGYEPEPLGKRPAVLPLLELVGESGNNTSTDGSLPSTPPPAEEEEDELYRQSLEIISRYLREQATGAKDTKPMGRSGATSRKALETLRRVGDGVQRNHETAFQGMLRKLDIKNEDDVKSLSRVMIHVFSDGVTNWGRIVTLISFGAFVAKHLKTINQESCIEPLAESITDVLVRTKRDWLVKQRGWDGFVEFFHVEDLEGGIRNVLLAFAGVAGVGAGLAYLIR
# Chain of Large T antigen (P03070 whole entry): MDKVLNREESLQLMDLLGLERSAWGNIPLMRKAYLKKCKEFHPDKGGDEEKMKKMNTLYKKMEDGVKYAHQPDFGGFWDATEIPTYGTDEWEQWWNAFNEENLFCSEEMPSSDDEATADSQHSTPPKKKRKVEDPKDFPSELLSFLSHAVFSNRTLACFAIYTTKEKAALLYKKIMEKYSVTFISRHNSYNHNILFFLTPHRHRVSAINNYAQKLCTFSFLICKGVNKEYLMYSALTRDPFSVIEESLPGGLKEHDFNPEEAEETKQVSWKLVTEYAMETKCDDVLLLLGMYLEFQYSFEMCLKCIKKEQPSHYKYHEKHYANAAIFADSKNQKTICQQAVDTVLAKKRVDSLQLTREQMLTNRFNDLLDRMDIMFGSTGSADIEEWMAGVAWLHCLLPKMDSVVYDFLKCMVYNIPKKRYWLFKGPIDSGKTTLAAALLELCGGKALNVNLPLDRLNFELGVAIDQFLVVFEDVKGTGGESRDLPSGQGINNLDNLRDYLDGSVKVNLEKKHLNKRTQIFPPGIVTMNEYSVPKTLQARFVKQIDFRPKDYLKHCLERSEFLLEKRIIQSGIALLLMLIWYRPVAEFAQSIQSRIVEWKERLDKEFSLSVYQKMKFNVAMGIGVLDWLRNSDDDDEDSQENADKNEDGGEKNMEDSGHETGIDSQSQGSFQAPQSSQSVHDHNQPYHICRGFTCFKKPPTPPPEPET
# Chain of Luciferin 4-monooxygenase (P08659 whole entry): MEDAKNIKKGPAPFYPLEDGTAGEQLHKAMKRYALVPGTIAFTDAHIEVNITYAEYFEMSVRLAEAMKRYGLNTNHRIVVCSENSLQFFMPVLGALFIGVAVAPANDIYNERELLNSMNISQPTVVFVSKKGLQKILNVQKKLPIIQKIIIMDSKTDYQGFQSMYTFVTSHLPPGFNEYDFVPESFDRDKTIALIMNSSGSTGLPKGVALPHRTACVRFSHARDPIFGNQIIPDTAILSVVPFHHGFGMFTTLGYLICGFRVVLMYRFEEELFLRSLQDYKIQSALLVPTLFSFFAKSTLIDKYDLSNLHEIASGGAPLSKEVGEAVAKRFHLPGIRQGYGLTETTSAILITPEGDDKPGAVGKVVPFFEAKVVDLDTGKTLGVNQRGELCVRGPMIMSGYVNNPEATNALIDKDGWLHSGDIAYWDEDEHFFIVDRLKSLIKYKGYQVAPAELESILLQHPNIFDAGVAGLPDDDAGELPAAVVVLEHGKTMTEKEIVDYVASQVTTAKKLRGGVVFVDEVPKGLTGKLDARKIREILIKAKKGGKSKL
smiles,measurement,setting,value
Cc1cccc(NC(=O)CSc2cc(C(=O)c3nccn3C)c3ccccc3n2)c1,EC50,[1],453 µM (active)
COc1ccc(NC(=O)C2CCCN(c3nn4c(=O)cc(C)nc4s3)C2)cc1 (centres undefined),EC50,[2],> 112 µM (not active)
same,EC50,[3],> 112 µM (not active)
Cc1nnc(SCC(=O)N(C)Cc2ccccc2)nc1O,IC50,[4],> 47.1 µM (inactive)
same,EC50,[5],> 53 µM (inactive)
CN(C)c1ncc(S(=O)(=O)c2ccc(Cl)cc2)c(-c2ccc(Cl)cc2Cl)n1,IC50,[4],> 47.1 µM (inactive)
same,EC50,[5],> 53 µM (inactive)
O=C(Nc1cccc(S(=O)(=O)N2CCOCC2)c1)c1c2c(nc3ccccc13)CCC2,IC50,[6],5.02 µM (active)
CCCCn1c(N)c(N(CCC(C)C)C(=O)Cc2ccc(S(=O)(=O)N3CCOCC3)s2)c(=O)[nH]c1=O,IC50,[4],> 47.1 µM (inactive)
same,EC50,[5],> 53 µM (inactive)
C[C@H]1CN([C@@H](C)CO)C(=O)Cc2cc(NS(C)(=O)=O)ccc2O[C@@H]1CN(C)Cc1ccc(Cl)c(Cl)c1,IC50,[4],> 47.1 µM (inactive)
same,EC50,[5],40.7 µM (active)
Cc1ccc(C(=O)N/C(=C\c2cn(C)c3ccccc23)C(=O)NCCCN2CCOCC2)cc1,IC50,[4],> 47.1 µM (inactive)
same,EC50,[5],> 53 µM (inactive)
CCOc1ccc(S(=O)(=O)N2CCN(C(=O)c3ccncc3)CC2)cc1,IC50,[4],> 47.1 µM (inactive)
same,EC50,[5],> 53 µM (inactive)
CC[C@@H]1CCCCc2ccccc2[C@H](C(=O)C[C@H](O)CC(C)=O)OC1=O,IC50,[4],> 47.1 µM (inactive)
same,EC50,[5],> 53 µM (inactive)
COc1cc(/C=N\NC(=O)c2ccc(Cn3nc([N+](=O)[O-])c(Cl)c3C)o2)ccc1O,IC50,Large T antigen,32.7 µM (active)
same,IC50,[7],30.5 µM (active)
COc1cc(/C=N/N(C)c2ccccc2)ccc1O,IC50,Large T antigen,8.47 µM (active)
same,IC50,[7],15.6 µM (active)
CN(C)c1ccc(/C=N/NC(=O)c2cccc(C(=O)N/N=C/c3ccc(N(C)C)cc3)n2)cc1,IC50,[6],1.15 µM (active)
C[C@@H](O)C#Cc1ccc([C@H]2[C@H]3CN(S(=O)(=O)c4ccccc4)CCCCN3[C@H]2CO)cc1,AC50,[8],7.37 µM (active)
C[C@H]1CN([C@@H](C)CO)S(=O)(=O)c2ccc(C#Cc3ccccc3)cc2O[C@@H]1CN(C)S(=O)(=O)c1cn(C)cn1,AC50,[8],3.95 µM (active)
COc1ccc2c3c([nH]c2c1)[C@@H](CO)N(Cc1cc(F)ccc1F)CC31CN(C(=O)CN(C)C)C1,AC50,[8],3.87 µM (active)
Cn1c(=O)n(C)c2cc(NC(=O)CCl)ccc21,EC50,BJ [9],18.8 µM (active)
same,EC50,BJ [10],20.7 µM (inconclusive)
same,EC50,BJ [11],> 75 µM (inconclusive)
same,EC50,[12],28 µM (active)
O=C(O)C[C@H](O)C[C@H](O)/C=C/c1c(C2CC2)nc2ccccc2c1-c1ccc(F)cc1 [PITAVASTATIN CALCIUM],EC50,BJ [9],0.299 µM (active)
same,EC50,BJ [10],4.21 µM (active)
same,EC50,BJ [11],0.559 µM (active)
same,EC50,[12],0.353 µM (active)
